Source: PMC4721548, “Conformational heterogeneity of the Roc domains in C. tepidum Roc–COR and implications for human LRRK2 Parkinson mutations” (Bioscience Reports, 2015)

What was measured:
CtRocCOR [1] = biological target: T1, CtRocCOR (Chlorobaculum tepidum, UniProt Q8KC98); assay: GTPase activity assay; type: biochemical
T1 construct: gene CT1526; RocCOR tandem, AA 412-946, recombinant, homodimer; MTSSL spin-labelled for EPR

CtRocCOR [2] = biological target: T1, CtRocCOR; assay: DEER pulse EPR inter-spin distance change upon nucleotide binding; settings: 1 mM GppNHp, 150 mM NaCl, 30 mM Tris/HCl, 5 mM MgCl2, pH 7.5, 5% glycerol, 50 K; protein spin-labelled with MTSSL at native Cys600 (C600R1)

T1 sequence (Q8KC98 entry or part of it): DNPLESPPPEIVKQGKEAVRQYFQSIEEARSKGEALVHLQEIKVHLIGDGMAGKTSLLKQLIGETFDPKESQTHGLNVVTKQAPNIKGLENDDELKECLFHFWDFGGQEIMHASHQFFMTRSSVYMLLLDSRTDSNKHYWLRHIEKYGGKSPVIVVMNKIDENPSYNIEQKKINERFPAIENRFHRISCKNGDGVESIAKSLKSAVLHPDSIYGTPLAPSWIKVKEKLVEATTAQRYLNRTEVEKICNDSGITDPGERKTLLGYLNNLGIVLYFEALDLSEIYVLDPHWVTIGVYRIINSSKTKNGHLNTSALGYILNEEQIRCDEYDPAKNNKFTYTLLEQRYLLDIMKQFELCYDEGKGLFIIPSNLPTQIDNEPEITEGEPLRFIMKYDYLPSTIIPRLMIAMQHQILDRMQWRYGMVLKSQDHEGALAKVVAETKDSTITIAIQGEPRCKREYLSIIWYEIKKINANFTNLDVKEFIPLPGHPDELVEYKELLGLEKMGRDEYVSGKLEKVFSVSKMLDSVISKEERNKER

Structure (SMILES)	GTPase activity assay (CtRocCOR [1])	DEER pulse EPR inter-spin distance change upon nucleotide binding (CtRocCOR [2])
Nc1nc2c(ncn2[C@@H]2O[C@H](COP(=O)(O)OP(=O)(O)OP(=O)(O)O)[C@@H](O)[C@H]2O)c(=O)[nH]1 [GTP]	No significant impairment of GTPase activity by the mutations in comparison with wild-type	
Nc1nc2c(ncn2[C@@H]2O[C@H](COP(=O)(O)OP(=O)(O)NP(=O)(O)O)[C@@H](O)[C@H]2O)c(=O)[nH]1 [GppNHp]		in the presence of GppNHp, GDP·AlFx or GDP (Figure 2c) reveal changes upon nt binding
